# Test results: PubChem BioAssay (NCI)
#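 Five concentrations, 48 hours, 96-well plates. GI50: concentration for 50% inhibition of growth. TGI is the concentration that stops growth completely.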
# Legend:
# Experiment in all cases: DTP human tumour cell line panel, 48 h
# [1] = system: 786-0 renal
# [2] = system: A498 renal
# [3] = system: A549 NSCLC
# [4] = system: ACHN renal
# [5] = system: BT-549 breast
# [6] = system: CAKI-1 renal
# [7] = system: CCRF-CEM leukemia
# [8] = system: COLO 205 colon
# [9] = system: DU-145 prostate
# [10] = system: EKVX NSCLC
# [11] = system: HCC-2998 colon
# [12] = system: HCT-116 colon
# [13] = system: HCT-15 colon
# [14] = system: HL-60(TB) leukemia
# [15] = system: HOP-62 NSCLC
# [16] = system: HOP-92 NSCLC
# [17] = system: HS 578T breast
# [18] = system: HT29 colon
# [19] = system: IGROV1 ovarian
# [20] = system: K-562 leukemia
# [21] = system: KM12 colon
# [22] = system: LOX IMVI melanoma
# [23] = system: M14 melanoma
# [24] = system: MALME-3M melanoma
# [25] = system: MCF7 breast
# [26] = system: MDA-MB-231 breast
# [27] = system: MDA-MB-435
# [28] = system: MOLT-4 leukemia
# [29] = system: NCI-H226 lung
# [30] = system: NCI-H23 lung
# [31] = system: NCI-H460 lung
# [32] = system: NCI-H522 lung
# [33] = system: NCI/ADR-RES ovarian
# [34] = system: OVCAR-3 ovarian
# [35] = system: OVCAR-4 ovarian
# [36] = system: OVCAR-5 ovarian
# [37] = system: OVCAR-8 ovarian
# [38] = system: PC-3 prostate
# [39] = system: RPMI-8226 leukemia
# [40] = system: RXF 393 renal
# [41] = system: SF-268 CNS
# [42] = system: SF-295 CNS
# [43] = system: SF-539 CNS
# [44] = system: SK-MEL-2 melanoma
# [45] = system: SK-MEL-28 melanoma
# [46] = system: SK-MEL-5 melanoma
# [47] = system: SK-OV-3 ovarian
# [48] = system: SN12C renal
# [49] = system: SNB-19 CNS
# [50] = system: SNB-75 CNS
# [51] = system: SR leukemia
# [52] = system: SW-620 colon
# [53] = system: T-47D breast
# [54] = system: TK-10 renal
# [55] = system: U251 CNS
# [56] = system: UACC-257 melanoma
# [57] = system: UACC-62 melanoma
# [58] = system: UO-31 renal
structure (smiles),measurement,setting,value
CCCC(=O)NC(c1ccc(N(CC)CC)cc1)c1cc(C)c2cccnc2c1O (stereo not drawn),GI50,[1],763 nM
same,TGI,[1],> 38500 nM
same,GI50,[2],> 100000 nM
same,TGI,[2],> 100000 nM
same,GI50,[3],737 nM
same,TGI,[3],> 100000 nM
same,GI50,[4],422 nM
same,TGI,[4],> 24300 nM
same,GI50,[5],1040 nM
same,TGI,[5],> 59200 nM
same,GI50,[6],381 nM
same,GI50,[7],407 nM
same,TGI,[7],> 100000 nM
same,GI50,[8],398 nM
same,TGI,[8],> 100000 nM
same,GI50,[9],710 nM
same,TGI,[9],> 100000 nM
same,GI50,[10],313 nM
same,TGI,[10],5040 nM
same,GI50,[11],570 nM
same,TGI,[11],> 100000 nM
same,GI50,[12],381 nM
same,TGI,[12],> 100000 nM
same,GI50,[13],323 nM
same,TGI,[13],> 100000 nM
same,GI50,[14],331 nM
same,TGI,[14],4850 nM
same,GI50,[15],511 nM
same,TGI,[15],> 100000 nM
same,GI50,[16],306 nM
same,TGI,[16],> 100000 nM
same,GI50,[17],358 nM
same,TGI,[17],> 100000 nM
same,GI50,[18],492 nM
same,TGI,[18],> 100000 nM
same,GI50,[19],439 nM
same,TGI,[19],14600 nM
same,GI50,[20],336 nM
same,TGI,[20],> 100000 nM
same,GI50,[21],454 nM
same,TGI,[21],> 100000 nM
same,GI50,[22],496 nM
same,TGI,[22],> 100000 nM
same,GI50,[23],462 nM
same,TGI,[23],5120 nM
same,GI50,[24],1450 nM
same,TGI,[24],> 87300 nM
same,GI50,[25],303 nM
same,TGI,[25],> 100000 nM
same,GI50,[26],539 nM
same,TGI,[26],> 100000 nM
same,GI50,[27],409 nM
same,TGI,[27],> 48600 nM
same,GI50,[28],397 nM
same,TGI,[28],> 100000 nM
same,GI50,[29],513 nM
same,TGI,[29],4260 nM
same,GI50,[30],462 nM
same,TGI,[30],> 100000 nM
same,GI50,[31],247 nM
same,GI50,[32],319 nM
same,GI50,[33],366 nM
same,TGI,[33],> 100000 nM
same,GI50,[34],374 nM
same,TGI,[34],> 100000 nM
same,GI50,[35],394 nM
same,TGI,[35],> 100000 nM
same,GI50,[36],791 nM
same,TGI,[36],> 100000 nM
same,GI50,[37],381 nM
same,TGI,[37],> 100000 nM
same,GI50,[38],477 nM
same,TGI,[38],> 100000 nM
same,GI50,[39],520 nM
same,TGI,[39],> 100000 nM
same,GI50,[40],1450 nM
same,TGI,[40],> 26900 nM
same,GI50,[41],438 nM
same,TGI,[41],32600 nM
same,GI50,[42],352 nM
same,TGI,[42],> 100000 nM
same,GI50,[43],462 nM
same,TGI,[43],4560 nM
same,GI50,[44],399 nM
same,TGI,[44],> 42000 nM
same,GI50,[45],561 nM
same,TGI,[45],> 100000 nM
same,GI50,[46],639 nM
same,TGI,[46],5530 nM
same,GI50,[47],635 nM
same,TGI,[47],> 100000 nM
same,GI50,[48],828 nM
same,TGI,[48],> 100000 nM
same,GI50,[49],464 nM
same,TGI,[49],> 100000 nM
same,GI50,[50],199 nM
same,TGI,[50],1800 nM
same,GI50,[51],388 nM
same,TGI,[51],> 54400 nM
same,GI50,[52],522 nM
same,TGI,[52],> 100000 nM
same,GI50,[53],675 nM
same,TGI,[53],> 100000 nM
same,GI50,[54],489 nM
same,TGI,[54],> 100000 nM
same,GI50,[55],386 nM
same,TGI,[55],> 100000 nM
same,GI50,[56],834 nM
same,TGI,[56],> 24600 nM
same,GI50,[57],347 nM
same,TGI,[57],1390 nM
same,GI50,[58],302 nM
same,TGI,[58],5670 nM
